Test results taken from US4439426A, “Semisynthetic macrolidic antibiotics, intermediate compounds for their preparation and related pharmaceutical compositions containing them” (priority 1981, dated 1984).
≈ marks a conversion by molar mass, not a printed value.

Experiments:
[1] = tested on: Streptococcus pneumoniae ATCC 6303 LRP 35; assay: Minimum bactericidal concentration (MBC); type: cell-based
Description: (§1) the bacterial power, expressed as the minimum bactericidal power (MBC) against some Gram positive aerobic stocks (table 5).

[2] = tested on: Corynebacterium diphteriae LRP 24; assay: Minimum bactericidal concentration (MBC); type: cell-based
Description: as §1

[3] = tested on: Streptococcus faecalis subs. zymogenes LRP 61; assay: Minimum bactericidal concentration (MBC); type: cell-based
Description: as §1

[4] = tested on: Streptococcus pyogenes ATCC 8668 LRP 34; assay: Minimum bactericidal concentration (MBC); type: cell-based
Description: as §1

[5] = tested on: Staphylococcus aureus ATCC 6538 P LRP 39; assay: Minimum bactericidal concentration (MBC); type: cell-based
Description: as §1

[6] = Stability in acidic environment at 25° C. (half-life of initial microbiological activity); type: physicochemical; conditions: aqueous solution
Description: Stability in acidic environnment at 25° C. of the novel
Note: t 1/2 represents the time for reducing to one half the initial powe
of the antibiotic determined by microbiological method through diffusion
on a plate using the test stock Microccocus luteus (Sarcina lutea) ATCC

[7] = tested on: Streptococcus pneumoniae ATCC 6303 LRP 35; assay: Bacteriostatic power in liquid medium (MIC); type: cell-based; conditions: Streptococcus pneumoniae, ATCC6303; liquid medium; read-out: Minimum inhibiting concentration
How it was run: (§2)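 Each strain, whether aerobic or anaerobic and Gram positive or negative, is tested for growth inhibition; the lowest inhibiting concentration is reported.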

[8] = tested on: Corynebacterium diphteriae LRP 24; assay: Bacteriostatic power in liquid medium (MIC); type: cell-based; conditions: Corynebacterium, LRP24; liquid medium; read-out: Minimum inhibiting concentration
How it was run: as §2

[9] = tested on: Streptococcus pyogenes ATCC 8668 LRP 34; assay: Bacteriostatic power in liquid medium (MIC); type: cell-based; conditions: Streptococcus pyogenes, ATCC8668; liquid medium; read-out: Minimum inhibiting concentration
How it was run: as §2

[10] = tested on: Streptococcus faecalis subs. zymogenes ATCC 12958 LRP 61; assay: Bacteriostatic power in liquid medium (MIC); type: cell-based; conditions: Enterococcus faecalis, ATCC12958; liquid medium; read-out: Minimum inhibiting concentration
How it was run: as §2

[11] = tested on: Staphylococcus aureus ATCC 6538 P LRP 39; assay: Bacteriostatic power in liquid medium (MIC); type: cell-based; conditions: Staphylococcus aureus, ATCC6538; liquid medium; read-out: Minimum inhibiting concentration
How it was run: as §2

Salmonella typhy LRP 8 = assay: microbe, parasite or virus in culture; type: cell-based; conditions: LRP8, solid medium, read-out: Minimum inhibiting concentration
How it was run: as §2

[12] = tested on: Clostridium perfrigens ATCC 3624 LRP 206; assay: microbe, parasite or virus in culture; type: cell-based; conditions: ATCC3624, solid medium, anaerobic, read-out: Minimum inhibiting concentration
How it was run: as §2

[13] = tested on: Streptococcus pneumoniae ATCC 6303 LRP 35; assay: Bacteriostatic power in solid medium (MIC); type: cell-based; conditions: Streptococcus pneumoniae, ATCC6303; solid medium; read-out: Minimum inhibiting concentration
How it was run: as §2

[14] = tested on: Corynebacterium diphteriae LRP 24; assay: Bacteriostatic power in solid medium (MIC); type: cell-based; conditions: Corynebacterium, LRP24; solid medium; read-out: Minimum inhibiting concentration
How it was run: as §2

[15] = tested on: Micrococcus luteus ATCC 15957 LRP 193; assay: Bacteriostatic power in solid medium (MIC); type: cell-based; conditions: Micrococcus luteus, ATCC15957; solid medium; Erythromycin resistant; read-out: Minimum inhibiting concentration
How it was run: as §2

[16] = tested on: Streptococcus pneumoniae ATCC 6303 LRP 52; assay: Bacteriostatic power in solid medium (MIC); type: cell-based; conditions: Streptococcus pneumoniae, ATCC6303; solid medium; read-out: Minimum inhibiting concentration
How it was run: as §2

[17] = tested on: Fusobacteriumnecrophroum ATCC 27852 LRP 210; assay: Bacteriostatic power in solid medium (MIC); type: cell-based; conditions: read-out: Minimum inhibiting concentration
How it was run: as §2

[18] = tested on: Streptococcus pyogenes ATCC 8668 LRP 34; assay: Bacteriostatic power in solid medium (MIC); type: cell-based; conditions: Streptococcus pyogenes, ATCC8668; solid medium; read-out: Minimum inhibiting concentration
How it was run: as §2

[19] = tested on: Streptococcus pneumoniae ATCC 6303 LRP 53; assay: Bacteriostatic power in solid medium (MIC); type: cell-based; conditions: Streptococcus pneumoniae, ATCC6303; solid medium; read-out: Minimum inhibiting concentration
How it was run: as §2

Shigella sonnei LRP 5 = assay: Bacteriostatic power in solid medium (MIC); type: cell-based; conditions: LRP5, read-out: Minimum inhibiting concentration
How it was run: as §2

[20] = tested on: Haemophilus influenzae ATCC 19418 LRP 213; assay: Bacteriostatic power in solid medium (MIC); type: cell-based; conditions: Haemophilus influenzae, ATCC19418, read-out: Minimum inhibiting concentration
How it was run: as §2

[21] = tested on: Klelsiella pneumoniae LRP 54; assay: Bacteriostatic power in solid medium (MIC); type: cell-based; conditions: solid medium; read-out: Minimum inhibiting concentration
How it was run: as §2

[22] = tested on: Staphylococcus aureus ATCC 14154 LRP 78; assay: Bacteriostatic power in solid medium (MIC); type: cell-based; conditions: Staphylococcus aureus, ATCC14154; solid medium; Erythromycin resistant; read-out: Minimum inhibiting concentration
How it was run: as §2

[23] = tested on: Neisseria gonorrhoeae ATCC 19424 LRP 214; assay: Bacteriostatic power in solid medium (MIC); type: cell-based; conditions: Neisseria gonorrhoeae, ATCC19424; solid medium; read-out: Minimum inhibiting concentration
How it was run: as §2

[24] = tested on: Micrococcus luteus ATCC 9341 LRP 6; assay: Bacteriostatic power in solid medium (MIC); type: cell-based; conditions: Micrococcus luteus, ATCC9341; solid medium; read-out: Minimum inhibiting concentration
How it was run: as §2

[25] = tested on: Streptococcus pyogenes ATCC 8668 LRP 197; assay: Bacteriostatic power in solid medium (MIC); type: cell-based; conditions: Streptococcus pyogenes, ATCC8668; solid medium; read-out: Minimum inhibiting concentration
How it was run: as §2

[26] = tested on: Acholeplasma laidlawii ATCC 23206 LRP 204; assay: Bacteriostatic power in solid medium (MIC); type: cell-based; conditions: Acholeplasma laidlawii, ATCC23206; solid medium; read-out: Minimum inhibiting concentration
How it was run: as §2

[27] = tested on: Proteus vulgaris ATCC 6380 LRP 13; assay: Bacteriostatic power in solid medium (MIC); type: cell-based; conditions: Proteus vulgaris, ATCC6380; solid medium; read-out: Minimum inhibiting concentration
How it was run: as §2

[28] = tested on: Streptococcus faecalis LRP 7; assay: Bacteriostatic power in solid medium (MIC); type: cell-based; conditions: Enterococcus faecalis, LRP7; solid medium; read-out: Minimum inhibiting concentration
How it was run: as §2

[29] = tested on: Pseudomonas aeruginosa LRP 9; assay: Bacteriostatic power in solid medium (MIC); type: cell-based; conditions: Pseudomonas aeruginosa, LRP9; solid medium; read-out: Minimum inhibiting concentration
How it was run: as §2

[30] = tested on: Mycoplasma hominis I ATCC 14027 LRP 211; assay: Bacteriostatic power in solid medium (MIC); type: cell-based; conditions: Metamycoplasma hominis, ATCC14027; solid medium; read-out: Minimum inhibiting concentration
How it was run: as §2

Bacillus subtilis LRP 25 = assay: Bacteriostatic power in solid medium (MIC); type: cell-based; conditions: Bacillus subtilis, LRP25; solid medium; read-out: Minimum inhibiting concentration
How it was run: as §2

Escherichia coli LRP 50 = assay: Bacteriostatic power in solid medium (MIC); type: cell-based; conditions: Escherichia coli, LRP50, read-out: Minimum inhibiting concentration
How it was run: as §2

[31] = tested on: Streptococcus faecalis subsp. zymogenes ATCC 12958 LRP 61; assay: Bacteriostatic power in solid medium (MIC); type: cell-based; conditions: Enterococcus faecalis, ATCC12958; solid medium; read-out: Minimum inhibiting concentration
How it was run: as §2

[32] = tested on: Staphylococcus aureus ATCC 6538P LRP 39; assay: Bacteriostatic power in solid medium (MIC); type: cell-based; conditions: Staphylococcus aureus, ATCC6538P; solid medium; read-out: Minimum inhibiting concentration
How it was run: as §2

[33] = tested on: Staphylococcus aureus ATCC 6538P LRP 14; assay: Bacteriostatic power in solid medium (MIC); type: cell-based; conditions: Staphylococcus aureus, ATCC6538P; solid medium; Penycilline resistant; read-out: Minimum inhibiting concentration
How it was run: as §2

[34] = tested on: Bacteroides fragilis ATCC 23745 LRP 205; assay: Bacteriostatic power in solid medium (MIC); type: cell-based; conditions: Bacteroides fragilis, ATCC23745; solid medium; anaerobic; read-out: Minimum inhibiting concentration
How it was run: as §2

SMILES: CC[C@H]1OC(=O)[C@H](C)[C@@H](O[C@H]2C[C@@](C)(O)[C@@H](O)[C@H](C)O2)[C@H](C)[C@@H](O[C@@H]2O[C@H](C)C[C@H](N(C)C)[C@H]2O)[C@](C)(O)C[C@](C)(F)C(=O)[C@H](C)[C@@H](O)[C@]1(C)O [P-80205, (8S)-8-fluoroerythromycin C]
- MBC/MIC [1]: 2
- MBC ([1]; Streptococcus pneumoniae, ATCC6303, read-out: Minimum bactericidal concentration (MBC)): 0.195 µg/mL (≈ 0.264 µM)
- MBC/MIC [2]: 8
- MBC ([2]; Corynebacterium, LRP24, read-out: Minimum bactericidal concentration (MBC)): 0.39 µg/mL (≈ 0.529 µM)
- MBC/MIC [3]: > 8
- MBC ([3]; Enterococcus faecalis, read-out: Minimum bactericidal concentration (MBC)): > 3.12 µg/mL
- MBC/MIC [4]: 16
- MBC ([4]; Streptococcus pyogenes, ATCC8668, read-out: Minimum bactericidal concentration (MBC)): 0.78 µg/mL (≈ 1.06 µM)
- MBC/MIC [5]: 16
- MBC ([5]; Staphylococcus aureus, ATCC6538, read-out: Minimum bactericidal concentration (MBC)): 3.12 µg/mL (≈ 4.23 µM)
- half-life ([6]; pH 2): 1.65 h
- half-life ([6]; pH 3): 41.5 h
- MIC [7]: 0.097 µg/mL (≈ 0.131 µM)
- MIC [8]: 0.049 µg/mL (≈ 0.0664 µM)
- MIC [9]: 0.049 µg/mL (≈ 0.0664 µM)
- MIC [10]: 0.39 µg/mL (≈ 0.529 µM)
- MIC [11]: 0.195 µg/mL (≈ 0.264 µM)
- MIC (Salmonella typhy LRP 8): 12.5 µg/mL (≈ 16.9 µM)
- MIC [12]: 6.25 µg/mL (≈ 8.47 µM)
- MIC [13]: 0.024 µg/mL (≈ 0.0325 µM)
- MIC [14]: 0.012 µg/mL (≈ 0.0163 µM)
- MIC [15]: 25 µg/mL (≈ 33.9 µM)
- MIC [16]: 0.012 µg/mL (≈ 0.0163 µM)
- MIC [17]: 12.5 µg/mL (≈ 16.9 µM)
- MIC [18]: 0.024 µg/mL (≈ 0.0325 µM)
- MIC [19]: 0.024 µg/mL (≈ 0.0325 µM)
- MIC (Shigella sonnei LRP 5): 25 µg/mL (≈ 33.9 µM)
- MIC [20]: 12.5 µg/mL (≈ 16.9 µM)
- MIC [21]: 25 µg/mL (≈ 33.9 µM)
- MIC [22]: 25 µg/mL (≈ 33.9 µM)
- MIC [23]: 0.195 µg/mL (≈ 0.264 µM)
- MIC [24]: 0.012 µg/mL (≈ 0.0163 µM)
- MIC [25]: 0.024 µg/mL (≈ 0.0325 µM)
- MIC [26]: 3.12 µg/mL (≈ 4.23 µM)
- MIC [27]: 25 µg/mL (≈ 33.9 µM)
- MIC [28]: 0.097 µg/mL (≈ 0.131 µM)
- MIC [29]: 25 µg/mL (≈ 33.9 µM)
- MIC [30]: 25 µg/mL (≈ 33.9 µM)
- MIC (Bacillus subtilis LRP 25): 0.097 µg/mL (≈ 0.131 µM)
- MIC (Escherichia coli LRP 50): 12.5 µg/mL (≈ 16.9 µM)
- MIC [31]: 0.097 µg/mL (≈ 0.131 µM)
- MIC [32]: 0.097 µg/mL (≈ 0.131 µM)
- MIC [33]: 0.097 µg/mL (≈ 0.131 µM)
- MIC [34]: 0.78 µg/mL (≈ 1.06 µM)
